For one data set, the target named is T1, TRPM8 (Rattus norvegicus, UniProt Q8R455).
T1 construct: expressed in transfected cells
Nature of the data set: Ca2+ microfluorography (Fluo-4 NW), menthol-induced Ca2+ signal in HEK-CR1-TRPM8 cells. It is filed as cell-based. As to conditions: for % Block TRPM8 50 µM: 50 µM compound; for % Block TRPM8 50 µM / IC50: agonist 100 µM menthol, HEK-CR1-TRPM8 cells. The method, then:
(§1) All compounds were tested at two different concentrations (50 and 5 µM) on TRPM8 and TRPV1 channels stably expressed in HEK and SH-SY5Y cell lines, respectively. The agonist induced intracellular Ca^2+ signals were measured using a fluorescent Ca^2+ indicator, in the absence and in the presence of test compounds. […] The obtained results were compared to those of 68 (AMTB, TRPM8 antagonist) and ruthenium red (TRPV1 antagonist). The IC50 values for the assay on TRPM8 were also calculated.
(§2) For fluorescence assays, cells expressing TRP channels (SH-SY5Y-TRPV1 and HEKCR1-TRPM8) were seeded in 96-well plates (Corning Incorporated, Corning, NY) at a cell density of 40,000 cells 2 days before treatment. The day of treatment the medium was replaced with 100 µL of the dye loading solution Fluo-4 NW supplemented with probenecid 2.5 mM. Then the compounds dissolved in DMSO were added at the desired concentrations and the plate(s) were incubated at 37 °C in a humidified atmosphere of 5% CO2 for 60 minutes.
(§3) The fluorescence was measured using instrument settings appropriate for excitation at 485 nm and emission at 535 nm (POLARstar Omega BMG LABtech). […] The corresponding antagonist
(§4) (10 µM Ruthenium Red forTRPV1 and 10 µM 68 for TRPM8) was added for the blockade. The changes in fluorescence intensity were recorded during 15 cycles more. […] The blocking percentage was calculated as follow (Eq. 1):1 %TRPBlockedResponse=(1−Fo−Fi/FCo−FCi)∗100 where Fo is the fluorescence after the addition of menthol in the presence of the compound, Fi is the fluorescence before the addition of menthol in the presence of the compound, FCo is the fluorescence after the addition of menthol in the absence of the compound, FCi is the fluorescence before the addition of menthol in the absence of the compound. To guarantee that our results were useful we only used assays with a Z-factor higher than 0.5.
(§5) The statistical Z-factor to determine the quality of the HTS experiment as was calculated using the equation 2:2 Z‐factor=1−3∗(SDmax+SDmin)/Meanmax−Meanmin where: Meanmax is the mean of the maximum fluorescence in the presence of agonist, SDmax is the standard deviation of the maximum fluorescence in the presence of agonists, Meanmin is the mean of the maximum fluorescence in the presence of agonist and antagonist and SDmin is the standard deviation of the maximum fluorescence in the presence of agonist and antagonist.

A further data set concerns the target TRPV1 (Rattus norvegicus, UniProt O35433). In words: Ca2+ microfluorography (Fluo-4 NW), capsaicin-induced Ca2+ signal in SH-SY5Y-TRPV1 cells. It is filed as cell-based. As to conditions: for % Block TRPV1 50 µM: 50 µM compound, agonist 10 µM capsaicin, SH-SY5Y-TRPV1 cells. The method, then:
as §1, §2, §3, §4, §5

Another data set is described as follows: Kinetic solubility. Format: physicochemical.

Experimental findings from article PMC5589751, “Synthesis, high-throughput screening and pharmacological characterization of β–lactam derivatives as TRPM8 antagonists” (Scientific Reports, 2017) are described below.

Each structure is given as a SMILES string. “And” between values parts separate entries of the source, which are not always exact repeats. Identical values can stand only once.

TRPV1, sequence (O35433 whole entry): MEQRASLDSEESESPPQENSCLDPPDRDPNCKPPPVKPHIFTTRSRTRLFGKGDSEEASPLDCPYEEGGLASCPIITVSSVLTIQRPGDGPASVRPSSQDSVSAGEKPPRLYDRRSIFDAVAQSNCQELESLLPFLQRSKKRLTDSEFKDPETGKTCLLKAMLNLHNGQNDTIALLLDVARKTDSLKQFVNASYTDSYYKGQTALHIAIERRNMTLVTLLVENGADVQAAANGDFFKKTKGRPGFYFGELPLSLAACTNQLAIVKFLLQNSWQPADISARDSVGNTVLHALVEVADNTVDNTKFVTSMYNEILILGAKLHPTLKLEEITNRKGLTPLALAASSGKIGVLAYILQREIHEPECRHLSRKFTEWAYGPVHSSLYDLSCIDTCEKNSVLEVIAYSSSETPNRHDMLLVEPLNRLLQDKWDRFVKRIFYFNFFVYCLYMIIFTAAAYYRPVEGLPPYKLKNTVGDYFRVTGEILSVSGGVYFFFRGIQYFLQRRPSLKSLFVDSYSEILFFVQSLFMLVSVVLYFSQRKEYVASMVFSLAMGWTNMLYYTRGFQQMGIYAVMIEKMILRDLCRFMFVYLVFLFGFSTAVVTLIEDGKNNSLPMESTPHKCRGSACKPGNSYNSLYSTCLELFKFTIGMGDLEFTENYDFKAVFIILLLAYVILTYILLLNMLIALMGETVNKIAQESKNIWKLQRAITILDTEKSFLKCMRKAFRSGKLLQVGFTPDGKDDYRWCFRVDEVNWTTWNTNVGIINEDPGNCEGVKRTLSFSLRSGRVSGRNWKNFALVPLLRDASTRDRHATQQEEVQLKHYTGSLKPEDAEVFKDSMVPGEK
T1 sequence (Q8R455 whole entry): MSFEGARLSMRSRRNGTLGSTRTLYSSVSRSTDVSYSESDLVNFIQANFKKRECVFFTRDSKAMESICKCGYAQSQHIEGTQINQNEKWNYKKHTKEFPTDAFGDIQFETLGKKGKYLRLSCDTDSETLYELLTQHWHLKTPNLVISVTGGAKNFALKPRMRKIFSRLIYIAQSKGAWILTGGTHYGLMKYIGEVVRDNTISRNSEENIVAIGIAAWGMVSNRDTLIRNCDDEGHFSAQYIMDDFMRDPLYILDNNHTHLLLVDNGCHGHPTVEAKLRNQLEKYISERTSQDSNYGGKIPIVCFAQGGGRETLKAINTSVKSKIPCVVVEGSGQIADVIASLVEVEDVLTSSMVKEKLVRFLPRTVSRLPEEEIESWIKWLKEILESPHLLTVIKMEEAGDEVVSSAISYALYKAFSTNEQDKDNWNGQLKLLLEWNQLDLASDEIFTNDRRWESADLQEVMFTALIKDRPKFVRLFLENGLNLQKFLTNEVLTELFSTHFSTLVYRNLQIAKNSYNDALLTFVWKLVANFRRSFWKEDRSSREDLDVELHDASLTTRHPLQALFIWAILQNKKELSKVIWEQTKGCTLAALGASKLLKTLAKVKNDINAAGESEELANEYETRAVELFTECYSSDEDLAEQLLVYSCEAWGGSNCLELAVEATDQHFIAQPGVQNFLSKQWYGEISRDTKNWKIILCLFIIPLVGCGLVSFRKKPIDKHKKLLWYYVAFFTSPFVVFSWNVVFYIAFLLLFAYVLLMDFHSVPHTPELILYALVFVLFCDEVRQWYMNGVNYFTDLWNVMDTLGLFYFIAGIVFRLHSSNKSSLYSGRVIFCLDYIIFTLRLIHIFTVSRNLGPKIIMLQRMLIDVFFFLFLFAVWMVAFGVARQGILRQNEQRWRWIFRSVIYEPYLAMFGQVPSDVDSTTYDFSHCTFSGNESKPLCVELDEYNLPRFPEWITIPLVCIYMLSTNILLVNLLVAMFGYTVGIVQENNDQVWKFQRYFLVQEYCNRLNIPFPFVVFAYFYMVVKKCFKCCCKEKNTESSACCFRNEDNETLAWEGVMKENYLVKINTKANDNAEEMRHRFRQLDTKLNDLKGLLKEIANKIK

As a reminder, the IC50 is the concentration that gives 50% inhibition. Consider `COC(=O)C(CCN1C(=O)CC1(Cc1ccccc1)C(=O)OC)NC(=O)OC(C)(C)C` (stereo not drawn) [Compound 39], for which, on TRPM8, the “% Block TRPM8 50 µM” value was 49.2 ± 15.3% and the IC50 was determined as 50.2 ± 1.3 µM.
Consider `COC(=O)C1(Cc2ccccc2)CC(=O)N1CCC(NC(=O)OC(C)(C)C)C(=O)OCc1ccccc1` (stereo not drawn) [Compound 40], for which, on TRPM8, the “% Block TRPM8 50 µM” value is given as 75% and the IC50 amounted to 6.8 ± 1.02 µM. In addition, the “% Block TRPV1 50 µM” value on TRPV1 was determined as 42.4 ± 5.3%.
With `COC(=O)C1(Cc2ccccc2)CC(=O)N1CCC(NC(=O)OCc1ccccc1)C(=O)OC(C)(C)C` (stereo not drawn) [Compound 42], at TRPM8, the “% Block TRPM8 50 µM” value is 82% and 82.2 ± 29.0%; the IC50 stood at 6.2 ± 1.6 µM. Also, the “% Block TRPV1 50 µM” value on TRPV1 is recorded as 51.7 ± 15.4%.
On to `COC(=O)C1(C)CC(=O)N1CC[C@H](NC(=O)OC(C)(C)C)C(=O)OCc1ccccc1` (stereo partly drawn) [Compound 43], for which, at TRPM8, the “% Block TRPM8 50 µM” value was 80.5 ± 15.8% and the IC50 was 36.8 ± 3.1 µM.
Turning to `COC(=O)C1(C)CC(=O)N1CCC(NC(=O)OCc1ccccc1)C(=O)OC(C)(C)C` (stereo not drawn) [Compound 44], at TRPM8, the “% Block TRPM8 50 µM” value is listed as 21.3 ± 9.8% and the 50% inhibitory concentration (IC50) amounted to 339.8 ± 1.4 µM. For the same compound, on TRPV1, the “% Block TRPV1 50 µM” value turned out to be 26.8 ± 4.8%.
For the compound `CC(C)(C)OC(=O)NC(CCCN1C(=O)CC1(Cc1ccccc1)C(=O)OCc1ccccc1)C(=O)OCc1ccccc1` (stereo not drawn) [Compound 46], at TRPM8, the “% Block TRPM8 50 µM” value was 86.5±19.6% and the IC50 was 1.7 ± 2.7 µM. In addition, the “reduction of TRPM8 blockade activity compared with homologue 41” value on TRPM8 (longer N-alkyl chain, 46 versus 41) is “up to 4 fold”. At TRPV1, the “% Block TRPV1 50 µM” value came to 59.4 ± 10.5%.
For `COC(=O)C(CCCN1C(=O)CC1(Cc1ccccc1)C(=O)OC(C)(C)C)NC(=O)OCc1ccccc1` (stereo not drawn) [Compound 47], the “% Block TRPM8 50 µM” value at TRPM8 turned out to be 94.9 ± 19.7%. For the same compound, the “% Block TRPV1 50 µM” value at TRPV1 worked out at 49.8 ± 7.2%.
On to `CC(C)(C)OC(=O)NC(CCN1C(=O)CC1(Cc1ccccc1)C(=O)O)C(=O)O` (stereo not drawn) [Compound 51], for which, on TRPM8, the “% Block TRPM8 50 µM” value is listed as 41.7 ± 8.7% and the IC50 amounted to 74.1 ± 3.6 µM. Further, the “% Block TRPV1 50 µM” value on TRPV1 is listed as 15.9 ± 4.3%.
The matching figures for `CC(C)(C)OC(=O)NC(CCCN1C(=O)CC1(Cc1ccccc1)C(=O)O)C(=O)O` (stereo not drawn) [Compound 53]: 40.9 ± 10.3%, 68.4 ± 8.5 µM and 20.6 ± 9.2%.
Take `COC(=O)[C@H](C)NC(=O)[C@H](CCN1C(=O)C[C@@]1(Cc1ccccc1)C(=O)N[C@@H](C)C(=O)OC)NC(=O)OC(C)(C)C` [Compound 57b]: on TRPM8, the “% Block TRPM8 50 µM” value is listed as 44.0 ± 16.5% and the IC50 stood at 70.4 ± 1.6 µM.
`COC(=O)[C@H](C)NC(=O)C1(Cc2ccccc2)CC(=O)N1CCC[C@H](NC(=O)OCc1ccccc1)C(=O)OC` (stereo partly drawn) [Compound 58]: at TRPM8, the “% Block TRPM8 50 µM” value is listed as 50.7 ± 9.5% and the half-inhibitory concentration (IC50) turned out to be 48.4 ± 18.6 µM. For the same compound, at TRPV1, the “% Block TRPV1 50 µM” value was found to be 18.3 ± 16.2%.
For `COC(=O)[C@H](CCCN1C(=O)CC1(Cc1ccccc1)C(=O)N[C@H](C)C(=O)OC)NC(=O)OCc1ccccc1` (stereo partly drawn) [Compound 59], on TRPM8, the “% Block TRPM8 50 µM” value is recorded as 36.2 ± 22.3% and the IC50 was 81.2 ± 4.8 µM. Moreover, the “% Block TRPV1 50 µM” value on TRPV1 came out at 19.4 ± 5.1%.
In the case of `COC(=O)C(C)NC(=O)C1(Cc2ccccc2)CC(=O)N1CCCC(C(=O)OC)N(C)C(=O)OCc1ccccc1` (stereo not drawn) [Compound 60], on TRPM8, the “% Block TRPM8 50 µM” value came to 71.3 ± 18.8% and the IC50 is 32.6 ± 1.8 µM.
Consider `CNC(CCCN1C(=O)CC1(Cc1ccccc1)C(=O)NC(C)C(=O)OC)C(=O)OC` (stereo not drawn) [Compound 61], for which, at TRPM8, the “% Block TRPM8 50 µM” value is recorded as 78.3 ± 25.0% and the IC50 was 27 ± 1.7 µM.
With `CC(C)(C)OC(=O)N[C@@H](CCN1C(=O)C[C@]1(Cc1ccccc1)C(=O)NCc1ccccc1)C(=O)NCc1ccccc1` [Compound 62a], on TRPM8, the “% Block TRPM8 50 µM” value stood at 70.0 ± 18.6% and the IC50 was found to be 7.1 ± 0.3 µM. The “% Block TRPV1 50 µM” value on TRPV1 is reported as 42.5 ± 16.2%. Besides, the Kinetic solubility in “Kinetic solubility” (1% DMSO) is 63 µM and 38 mg/L. Moreover, the Kinetic solubility in “Kinetic solubility” (5% DMSO) was 92 µM and 55 mg/L.
As for `CC(C)(C)OC(=O)NC(CCCN1C(=O)CC1(Cc1ccccc1)C(=O)NCc1ccccc1)C(=O)NCc1ccccc1` (stereo not drawn) [Compound 64], on TRPM8, the “% Block TRPM8 50 µM” value turned out to be 70.4 ± 15.2% and the half-inhibitory concentration (IC50) was found to be 11.5 ± 2.7 µM. Besides, the “% Block TRPV1 50 µM” value on TRPV1 worked out at 26.9 ± 9.2%.
Take `CC(C)(C)OC(=O)NC(CCN1C(=O)CC1(Cc1ccccc1)C(=O)Nc1cccnc1)C(=O)Nc1cccnc1` (stereo not drawn) [Compound 66]: the “% Block TRPM8 50 µM” value on TRPM8 is 64.6 ± 13.2%. Besides, the IC50 at TRPM8 is 5.7 ± 3.4 µM. Also, at TRPV1, the “% Block TRPV1 50 µM” value was determined as 22.8 ± 3.7%. Moreover, the Kinetic solubility in the data set “Kinetic solubility” (1% DMSO) was > 100 µM; in “Kinetic solubility” (5% DMSO), > 500 µM. Moreover, the “improved solubility respect to 41” value in “Kinetic solubility” (ratio to compound 41) is on record as > 50 fold. Besides, in “Kinetic solubility” (ratio to compound 62), the “improved solubility respect to 62” value is on record as > 5 fold.
On to `CC(C)(C)OC(=O)N[C@@H](CCN1C(=O)C[C@]1(Cc1ccccc1)C(=O)Nc1ccncc1)C(=O)Nc1ccncc1` [Compound 67a], for which, at TRPM8, the “% Block TRPM8 50 µM” value turned out to be 43.5 ± 9.8% and the IC50 was 38.1 ± 6.3 µM. The “% Block TRPV1 50 µM” value at TRPV1 is given as 36.3 ± 10.8%.
In the case of `CC(C)(C)OC(=O)N[C@@H](CCN1C(=O)C[C@@]1(Cc1ccccc1)C(=O)Nc1ccncc1)C(=O)Nc1ccncc1` [Compound 67b], on TRPM8, the “% Block TRPM8 50 µM” value was determined as 52.3 ± 7.6% and the 50% inhibitory concentration (IC50) came to 7.26 ± 1.9 µM. The “% Block TRPV1 50 µM” value at TRPV1 was determined as 31.7 ± 4.5%.
Take `Cc1cccc(COc2ccccc2C(=O)N(CCCN)Cc2cccs2)c1` [Compound 68, reference compound]: on TRPM8, the “% Block TRPM8 50 µM” value turned out to be 100% and the IC50 is 7 ± 1 µM.
Consider `N.N.N.N.N.N.N.N.N.N.N.N.N.N.[Cl-].[Cl-].[Cl-].[Cl-].[Cl-].[Cl-].[O-2].[O-2].[Ru+3].[Ru+3].[Ru+4]` [Ruthenium red, reference compound], for which the “% Block TRPV1 50 µM” value on TRPV1 is recorded as 100%. Further, the half-inhibitory concentration (IC50) at TRPV1 (printed in the TRPM8 IC50 column, footnote a: evaluated in TRPV1) stood at 0.015 µM.
Usually EC50 stands for the concentration needed to bring the measured effect to its halfway point. A lower EC50 goes with greater potency. On TRPM8 (agonist, in our assay), `CC1CCC(C(C)C)C(O)C1` (stereo not drawn) [menthol, reference compound] showed an EC50 of 137 µM.
